From patent US8063075B2, “Pyrrolidine ether derivatives as NK3 receptor antagonists” (Hoffmann-La Roche Inc., priority 2008, dated 2011)

Experiments:
[1] = biological target: T1, recombinant human NK3 receptor (Homo sapiens, UniProt P29371); test: [3H]SR142801 competition binding assay; conditions: membranes from HEK293 cells transiently expressing hNK3; [3H]SR142801 at its KD; 75 min RT; read-out: Data [μM] (affinity constant Ki, hNK3 receptor binding)
T1 construct: expressed in transfected cells; host or cells: HEK293 cells (transient expression), membranes
T1 sequence (P29371 1-465): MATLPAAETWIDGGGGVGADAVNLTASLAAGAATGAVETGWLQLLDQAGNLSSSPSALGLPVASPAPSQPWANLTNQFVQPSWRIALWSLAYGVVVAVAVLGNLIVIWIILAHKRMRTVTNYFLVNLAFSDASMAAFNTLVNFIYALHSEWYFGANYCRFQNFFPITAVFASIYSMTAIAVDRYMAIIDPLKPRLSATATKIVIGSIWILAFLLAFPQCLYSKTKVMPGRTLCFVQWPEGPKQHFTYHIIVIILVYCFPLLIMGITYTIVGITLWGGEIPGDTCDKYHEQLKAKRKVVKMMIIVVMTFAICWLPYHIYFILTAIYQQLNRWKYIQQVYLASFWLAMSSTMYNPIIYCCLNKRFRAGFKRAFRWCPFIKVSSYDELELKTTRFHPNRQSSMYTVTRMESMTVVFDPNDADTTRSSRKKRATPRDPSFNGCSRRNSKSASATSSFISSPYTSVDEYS
Protocol: [^3H]SR142801 Competition Binding Assay
hNK3 receptor binding experiment were performed using [^3H]SR142801 (Catalog No. TRK1035, specific activity: 74.0 Ci/mmol, Amersham, GE Healthcare UK limited, Buckinghamshire, UK) and membrane isolated from HEK293 cells transiently expressing recombinant human NK3 receptor. After thawing, the membrane homogenates were centrifuged at 48,000×g for 10 min at 4° C., the pellets were resuspended in the 50 mM Tris-HCl, 4 mM MnCl2, 1 μM phosphoramidon, 0.1% BSA binding buffer at pH 7.4 to a final assay concentration of 5 μg protein/well. […] At the end of the incubation, membranes were filtered onto unitfilter (96-well white microplate with bonded GF/C filter preincubated 1 h in 0.3% PEI+0.3% BSA, Packard BioScience, Meriden, Conn.) with a Filtermate 196 harvester (Packard BioScience) and washed 4 times with ice-cold 50 mM Tris-HCl, pH 7.4 buffer. Nonspecific binding was measured in the presence of 10 μM SB222200 for both radioligands. The radioactivity on the filter was counted (5 min) on a Packard Top-count microplate scintillation counter with quenching correction after addition of 45 μl of microscint 40 (Can berra Packard S. A., Zürich, Switzerland) and shaking for 1 h. Inhibition curves were fitted according to the Hill equation: y=100/(1+(x/IC50)^nH), where nH=slope factor using Excel-fit 4 software (Microsoft). IC50 values were derived from the inhibition curve and the affinity constant (Ki) values were calculated using the Cheng-Prussoff equation Ki=IC50/(1+[L]/KD) where [L] is the concentration of radioligand and KD is its dissociation constant at the receptor, derived from the saturation isotherm. All experiments were performed in duplicate and the mean±standard error (SEM) of the individual Ki values was calculated.

[2] = phase II trial, cited from earlier work

Compound | Ki [1] [µM] | activity on positive symptoms of schizophrenia ([2]; altered behaviour, delusion, hallucinations, extreme emotions, excited motor activity, incoherent speech) | activity in the treatment of negative symptoms ([2]; depression, anhedonia, social isolation or memory and attention deficits)
CC(=O)N1CCC(C(=O)N2C[C@H]([C@H](C)Oc3ccc(C(F)(F)F)cn3)[C@@H](c3ccc(Cl)c(Cl)c3)C2)CC1 (racemic) [Example 46, 1-(4-{(3SR,4RS)-3-(3,4-Dichloro-phenyl)-4-[(SR)-1-(5-trifluoromethyl-pyridin-2-yloxy)-ethyl]-pyrrolidine-1-carbonyl}-piperidin-1-yl)-ethanone] | 0.0018 | – | –
C[C@H](Oc1ccc(C#N)cn1)[C@H]1CN(C(=O)C2CCN(C(=O)C3(C)CC3)CC2)C[C@@H]1c1ccc(Cl)c(Cl)c1 (racemic) [Example 47, 6-((SR)-1-{(3RS,4SR)-4-(3,4-Dichloro-phenyl)-1-[1-(1-methyl-cyclopropanecarbonyl)-piperidine-4-carbonyl]-pyrrolidin-3-yl}-ethoxy)-nicotinonitrile] | 0.0019 | – | –
CC(=O)N(C)C1(c2ccccc2)CCN(CCC[C@]2(c3ccc(Cl)c(Cl)c3)CCCN(C(=O)c3ccccc3)C2)CC1 [SR 142,801, Osanetant] | – | active | inactive

Second part, led by results:

Ki [1] [µM] | Compound | activity on positive symptoms of schizophrenia ([2]; altered behaviour, delusion, hallucinations, extreme emotions, excited motor activity, incoherent speech) | activity in the treatment of negative symptoms ([2]; depression, anhedonia, social isolation or memory and attention deficits)
0.0074 | C[C@H](Oc1ccc(Cl)cn1)[C@H]1CN(C(=O)C2CCN(C(=O)C3(C)CC3)CC2)C[C@@H]1c1ccc(F)cc1F (racemic) [Example 48, [(3RS,4SR)-3-[(SR)-1-(5-Chloro-pyridin-2-yloxy)-ethyl]-4-(2,4-difluoro-phenyl)-pyrrolidin-1-yl]-[1-(1-methyl-cyclopropanecarbonyl)-piperidin-4-yl]-methanone] | – | –
0.001 | C[C@H](Oc1ccc(Cl)cn1)[C@H]1CN(C(=O)C2CCN(C(=O)C3(C)CC3)CC2)C[C@@H]1c1ccc(Cl)cc1 [Example 52, {(3S,4R)-3-(4-Chloro-phenyl)-4-[(S)-1-(5-chloro-pyridin-2-yloxy)-ethyl]-pyrrolidin-1-yl}-[1-(1-methyl-cyclopropanecarbonyl)-piperidin-4-yl]-methanone] | – | –
0.0008 | C[C@H](Oc1ccc(Cl)cn1)[C@H]1CN(C(=O)C2CCN(C(=O)C3(C)CC3)CC2)C[C@@H]1c1ccc(Cl)c(F)c1 [Example 53, {(3S,4R)-3-(4-Chloro-3-fluoro-phenyl)-4-[(S)-1-(5-chloro-pyridin-2-yloxy)-ethyl]-pyrrolidin-1-yl}-[1-(1-methyl-cyclopropanecarbonyl)-piperidin-4-yl]-methanone] | – | –
